This note sets out measurements from US12679843B2, “Pyrrolopyrimidine amines as complement inhibitors” (BioCryst Pharmaceuticals, Inc., priority 2020, dated 2026).

This test deals with Factor D (Homo sapiens, UniProt P00746). Briefly: Factor D esterolytic assay (Z-Lys-SBzl thioester substrate, DTNB, 405 nm). The settings on record: substrate Z-Lys-SBzl 1.29 mM, 100 mM HEPES, 500 mM NaCl, pH 7.5, 10% DMSO, tested a minimum of three times. It counts as biochemical. The essentials: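 Run in pH 7.5 HEPES (100 mM) with 500 mM NaCl and 10% DMSO, with compound preincubated at room temperature or not before adding 1.29 mM Z-Lys-SBzl. Free thiol released by Factor D reacts with DTNB, and rate is followed at 405 nm minus 690 nm over 600 s. IC50 derives from rate-based inhibition, minimum three replicates.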
Chain of Factor D (P00746 26-253): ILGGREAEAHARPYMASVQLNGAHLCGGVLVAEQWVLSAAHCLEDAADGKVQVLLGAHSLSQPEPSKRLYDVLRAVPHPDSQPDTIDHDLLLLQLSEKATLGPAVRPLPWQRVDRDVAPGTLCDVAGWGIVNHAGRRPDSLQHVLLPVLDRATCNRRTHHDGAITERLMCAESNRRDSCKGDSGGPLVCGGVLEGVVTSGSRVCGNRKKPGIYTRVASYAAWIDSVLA
A word on the IC50: it is the concentration that inhibits the measured activity by half. Consider `Cc1cc(F)c2c(c1)c1c(N)ncnc1n2CC(=O)N1[C@@H]2C[C@@H]2C[C@H]1C(=O)Nc1cccc(Br)n1` [Compound 391g, (1R,3S,5R)-2-(2-(4-amino-8-fluoro-6-methyl-9H-pyrimido[4,5-b]indol-9-yl)acetyl)-N-(6-bromopyridin-2-yl)-2-azabicyclo[3.1.0]hexane-3-carboxamide], for which the IC50 is < 100 nM.
For the compound `COc1cc(OC)c2c(c1)c1c(N)ncnc1n2CC(=O)N1[C@H](C(=O)Nc2cccc(Br)n2)C[C@@]2(C)C[C@@H]12` [Compound 279a, (1R,3S,5R)-2-(2-(4-amino-6,8-dimethoxy-9H-pyrimido[4,5-b]indol-9-yl)acetyl)-N-(6-bromopyridin-2-yl)-5-methyl-2-azabicyclo[3.1.0]hexane-3-carboxamide], the IC50 was < 100 nM.
Take `Cc1ccnc2c3c(N)ncnc3n(CC(=O)N3[C@@H]4C[C@@H]4C[C@H]3C(=O)Nc3cccc(Br)n3)c12` [Compound 284a, (1R,3S,5R)-2-(2-(4-amino-8-methyl-9H-pyrido[2′,3′:4,5]pyrrolo[2,3-d]pyrimidin-9-yl)acetyl)-N-(6-bromopyridin-2-yl)-2-azabicyclo[3.1.0]hexane-3-carboxamide]: the IC50 is < 100 nM.
The result for `COC(=O)c1cccc2c1c1c(N)ncnc1n2CC(=O)N1[C@H](C(=O)Nc2cccc(Br)n2)C[C@@]2(C)C[C@@H]12` [Compound 221c, methyl 4-amino-9-(2-((1R,3S,5R)-3-((6-bromopyridin-2-yl)carbamoyl)-5-methyl-2-azabicyclo[3.1.0]hexan-2-yl)-2-oxoethyl)-9H-pyrimido[4,5-b]indole-5-carboxylate] reads < 100 nM.
The result for `Cc1cc2c(cc1F)c1c(N)ncnc1n2CC(=O)N1[C@@H]2C[C@@H]2C[C@H]1C(=O)Nc1cccc(Br)n1` [Compound 381g, (1R,3S,5R)-2-(2-(4-amino-6-fluoro-7-methyl-9H-pyrimido[4,5-b]indol-9-yl)acetyl)-N-(6-bromopyridin-2-yl)-2-azabicyclo[3.1.0]hexane-3-carboxamide] reads < 100 nM; that for `Cc1cc(C(=O)O)cc2c3c(N)ncnc3n(CC(=O)N3[C@H](C(=O)Nc4cccc(Br)n4)C[C@@]4(C)C[C@@H]34)c12` [Compound 219a, 4-amino-9-(2-((1R,3S,5R)-3-((6-bromopyridin-2-yl)carbamoyl)-5-methyl-2-azabicyclo[3.1.0]hexan-2-yl)-2-oxoethyl)-8-methyl-9H-pyrimido[4,5-b]indole-6-carboxylic acid], < 100 nM; that for `Nc1ncnc2c1c1nc(-c3ccncc3)ccc1n2CC(=O)N1[C@@H]2C[C@@H]2C[C@H]1C(=O)Nc1cccc(Br)n1` [Compound 307c, (1R,3S,5R)-2-(2-(4-amino-6-(pyridin-4-yl)-9H-pyrido[2′,3′:4,5]pyrrolo[2,3-d]pyrimidin-9-yl)acetyl)-N-(6-bromopyridin-2-yl)-2-azabicyclo[3.1.0]hexane-3-carboxamide], < 100 nM.
Regarding `COc1cc2c(cc1C(F)(F)F)c1c(N)ncnc1n2CC(=O)N1[C@H](C(=O)Nc2cccc(Br)n2)C[C@@]2(C)C[C@@H]12` [Compound 368a, (1R,3S,5R)-2-(2-(4-amino-7-methoxy-6-(trifluoromethyl)-9H-pyrimido[4,5-b]indol-9-yl)acetyl)-N-(6-bromopyridin-2-yl)-5-methyl-2-azabicyclo[3.1.0]hexane-3-carboxamide], the IC50 was < 100 nM.
Turning to `C[C@@]12C[C@@H](C(=O)NCc3cccc(Cl)c3F)N(C(=O)Cn3cnc4c(N)ncnc43)[C@@H]1C2` [Compound 67c, (1R,3S,5R)-2-(2-(6-amino-9H-purin-9-yl)acetyl)-N-(3-chloro-2-fluorobenzyl)-5-methyl-2-azabicyclo[3.1.0]hexane-3-carboxamide], the IC50 lay in the range of 100 to 1000 nM.
Then `C[C@@]12C[C@@H](C(=O)Nc3cccc(Br)n3)N(C(=O)Cn3c4ccc(C(=O)O)cc4c4c(N)ncnc43)[C@@H]1C2` [Compound 161a, 4-amino-9-(2-((1R,3S,5R)-3-((6-bromopyridin-2-yl)carbamoyl)-5-methyl-2-azabicyclo[3.1.0]hexan-2-yl)-2-oxoethyl)-9H-pyrimido[4,5-b]indole-6-carboxylic acid], with < 100 nM; and `C=Cc1ccc2c(c1)c1c(N)ncnc1n2CC(=O)N1[C@@H]2C[C@@H]2C[C@H]1C(=O)Nc1cccc(Br)n1` [Compound 59c, (1R,3S,5R)-2-(2-(4-amino-6-vinyl-9H-pyrimido[4,5-b]indol-9-yl)acetyl)-N-(6-bromopyridin-2-yl)-2-azabicyclo[3.1.0]hexane-3-carboxamide], with < 100 nM; and `CC1(C)CC(O)CC(NC(=O)[C@@H]2C[C@H]3C[C@H]3N2C(=O)Cn2cnc3c(N)ncnc32)C1` (mixture of isomers) [Compound 106b, (1R,3S,5R)-2-(2-(6-amino-9H-purin-9-yl)acetyl)-N-(5-hydroxy-3,3-dimethylcyclohexyl)-2-azabicyclo[3.1.0]hexane-3-carboxamide], with > 1000 nM.
Then `CN(C)c1ccc2c(c1)c1c(N)ncnc1n2CC(=O)N1[C@@H]2C[C@@H]2C[C@H]1C(=O)Nc1cccc(Br)n1` [Compound 262a, (1R,3S,5R)-2-(2-(4-amino-6-(dimethylamino)-9H-pyrimido[4,5-b]indol-9-yl)acetyl)-N-(6-bromopyridin-2-yl)-2-azabicyclo[3.1.0]hexane-3-carboxamide], with < 100 nM; and `Cc1cc(-c2ccc(C(F)(F)F)nc2)cc2c3c(N)ncnc3n(CC(=O)N3[C@@H]4C[C@@H]4C[C@H]3C(=O)Nc3cccc(Br)n3)c12` [Compound 356c, (1R,3S,5R)-2-(2-(4-amino-8-methyl-6-(6-(trifluoromethyl)pyridin-3-yl)-9H-pyrimido[4,5-b]indol-9-yl)acetyl)-N-(6-bromopyridin-2-yl)-2-azabicyclo[3.1.0]hexane-3-carboxamide], with < 100 nM; and `C[C@@]12C[C@@H](C(=O)Nc3cccc(Br)n3)N(C(=O)Cn3c4ccc(-c5ccccc5)nc4c4c(N)ncnc43)[C@@H]1C2` [Compound 299a, (1R,3S,5R)-2-(2-(4-amino-6-phenyl-9H-pyrido[2′,3′:4,5]pyrrolo[2,3-d]pyrimidin-9-yl)acetyl)-N-(6-bromopyridin-2-yl)-5-methyl-2-azabicyclo[3.1.0]hexane-3-carboxamide], with < 100 nM.
`Nc1ncnc2c1c1cc(C(F)(F)F)ccc1n2CC(=O)N1C[C@@H](N)C[C@H]1C(=O)Nc1cccc(Br)n1` [Compound 180e, (2S,4S)-4-amino-1-(2-(4-amino-6-(trifluoromethyl)-9H-pyrimido[4,5-b]indol-9-yl)acetyl)-N-(6-bromopyridin-2-yl)pyrrolidine-2-carboxamide]: the IC50 is 100 to 1000 nM.
Then `Nc1ncnc2c1c1ccccc1n2CC(=O)N1C[C@H](F)C[C@H]1C(=O)NCc1cccc(Cl)c1F` [Compound 20a, (2S,4R)-1-(2-(4-amino-9H-pyrimido[4,5-b]indol-9-yl)acetyl)-N-(3-chloro-2-fluorobenzyl)-4-fluoropyrrolidine-2-carboxamide], with < 100 nM.
Regarding `COC(=O)c1cc(C)c2c(c1)c1c(N)ncnc1n2CC(=O)N1[C@H](C(=O)Nc2cccc(Br)n2)C[C@@]2(C)C[C@@H]12` [Compound 216g, methyl 4-amino-9-(2-((1R,3S,5R)-3-((6-bromopyridin-2-yl)carbamoyl)-5-methyl-2-azabicyclo[3.1.0]hexan-2-yl)-2-oxoethyl)-8-methyl-9H-pyrimido[4,5-b]indole-6-carboxylate], the IC50 is < 100 nM.
`Nc1ncnn2c(CC(=O)N3C[C@H](F)C[C@H]3C(=O)Nc3cccc(Br)n3)ccc12` [Compound 69a, (2S,4R)-1-(2-(4-aminopyrrolo[2,1-f][1,2,4]triazin-7-yl)acetyl)-N-(6-bromopyridin-2-yl)-4-fluoropyrrolidine-2-carboxamide]: the IC50 fell in the range of 100 to 1000 nM.
Regarding `Cc1cc(C(F)(F)F)cc2c3c(N)ncnc3n(CC(=O)N3C[C@](C)(F)C[C@H]3C(=O)Nc3cncc(Br)n3)c12` [Compound 305a, (2S,4R)-1-(2-(4-amino-8-methyl-6-(trifluoromethyl)-9H-pyrimido[4,5-b]indol-9-yl)acetyl)-N-(6-bromopyrazin-2-yl)-4-fluoro-4-methylpyrrolidine-2-carboxamide], the IC50 is < 100 nM.
For `Nc1ncnc2c1c1cc(C(F)(F)F)ccc1n2CC(=O)N1C[C@H](F)C[C@H]1C(=O)NCc1cccc(Cl)c1F` [Compound 25a, (2S,4R)-1-(2-(4-amino-6-(trifluoromethyl)-9H-pyrimido[4,5-b]indol-9-yl)acetyl)-N-(3-chloro-2-fluorobenzyl)-4-fluoropyrrolidine-2-carboxamide], the IC50 is < 100 nM.
In the case of `Cc1cc(C(F)(F)F)cc2c3c(N)ncnc3n(CC(=O)N3C[C@H](F)C[C@H]3C(=O)Nc3cccc(Cl)n3)c12` [Compound 300a, (2S,4R)-1-(2-(4-amino-8-methyl-6-(trifluoromethyl)-9H-pyrimido[4,5-b]indol-9-yl)acetyl)-N-(6-chloropyridin-2-yl)-4-fluoropyrrolidine-2-carboxamide], the IC50 is < 100 nM.
The result for `CC(=O)Nc1ccc2c(c1)c1c(N)ncnc1n2CC(=O)N1[C@H](C(=O)Nc2cccc(Br)n2)C[C@@]2(C)C[C@@H]12` [Compound 185a, (1R,3S,5R)-2-(2-(6-acetamido-4-amino-9H-pyrimido[4,5-b]indol-9-yl)acetyl)-N-(6-bromopyridin-2-yl)-5-methyl-2-azabicyclo[3.1.0]hexane-3-carboxamide] reads < 100 nM; that for `Nc1ncnc2c1ncn2CC(=O)N1CCS[C@H]1C(=O)NCc1cccc(Cl)c1F` [Compound 105b, (S)-3-(2-(6-amino-9H-purin-9-yl)acetyl)-N-(3-chloro-2-fluorobenzyl)thiazolidine-2-carboxamide], 100 to 1000 nM.
On to `CCOC(=O)c1cccc2c1c1c(N)ncnc1n2CC(=O)N1[C@@H]2C[C@@H]2C[C@H]1C(=O)Nc1cccc(Br)n1` [Compound 46g, ethyl 4-amino-9-(2-((1R,3S,5R)-3-((6-bromopyridin-2-yl)carbamoyl)-2-azabicyclo[3.1.0]hexan-2-yl)-2-oxoethyl)-9H-pyrimido[4,5-b]indole-5-carboxylate], for which the IC50 was 100 to 1000 nM.
